Columns and labels:
[1] = Pharmacokinetics and in vivo metabolites of ZL277 in mice plasma after single IP dose; settings: for metabolite detected in Plasma: mice after IP injection of ZL277
Description: (§1) Four to six-week-old female ovariectomized Nu/Nu mice (Genotype: Homozygous genotype, homozygous for Foxn1), purchased from Charles River Laboratories (Wilmington, MA, USA), were used for the study of ZL277 metabolites in vivo. Six mice in each group were given ethanol-dissolved ZL277 and belinostat, at a single dose of 10 mg/kg by intraperitoneal injection (IP). After IP administration, venous blood samples were collected at 1, 3, 6, and 24 h time points. Urine and fecal samples were collected for the time duration of 0–8 h, 8–24 h, 24–32 h, and 32–48 h after IP administration.
(§2) Plasma, urine, or feces samples were processed following protocols published previously. These samples were injected on the Hypersil GOLD C18 column (1.8 µm, 2.1 × 50 mm) with UHPLC ultimate 3000 from Dionex, coupled with a […] mass spectrometer, to quantitate the concentration of the main metabolites of ZL277. The 10 µL samples were run with the gradient starting at 0.3 mL/min from 2% mobile phase B (acetonitrile with 0.05% formic acid) and 98% mobile phase A (water with 0.05% formic acid) until 1 min, up to 30% B at 3 min, 45% B at 4.8 min, 100% B at 5.5 min, then back to 30% B until equilibration. SRM mode was used to detect ZL277 (pos 535.21→134.97), ZL277-B(OH)2-452 (neg 451.13→256.04), ZL277-424-OH (neg 423.07→317.04), belinostat (neg 317.02→245.05) or (pos 319.08→93.08), belinostat amide (pos 303.08→91.05), belinostat acid (neg 302.05→92.05), methylated belinostat (pos 333.09→239.92). The product scan in MS/MS mode was used to detect belinostat–sulfate (neg 397.02→97.02), and belinostat–glucoronate (pos 495.09→319.27). The […] was set at spray voltage at 3200 V, vaporizer temperature at 365 °C, sheath gas pressure at 33 psi, auxiliary gas pressure at 10 psi, and capillary temperature at 350 °C. Additional experimental details can be found in Figures S1 and S2, and Tables S1–S8.
Sample preparation protocols:
(1) Plasma sample preparation: Plasma samples (100 μL) were extracted with methanol.
Internal standard (10 μL 0.5 ng/μL trans-tamoxifen-13C2, 15N in methanol), methanol
(0.5 mL) were added to each plasma sample. The mixtures were stored at −20 °C
overnight. Samples were sonicated for 10 min and then centrifuged on a Heraeus Fresco

[2] = Drug and metabolite concentrations in MCF-7 xenograft breast tumor tissues of treated mice; assay type: in vivo; settings: breast tumor xenograft in mice treated with ZL277
Description: Four to six week old female ovariectomized Nu/Nu mice, implanted subcutaneously with 17β-Estradiol pellets, were injected with MCF-7 cells harvested in the exponential growth phase to grow the breast tumors. On day 15 after tumor formation, the mice were treated with vehicle, belinostat, at 10 mg/kg/day, or ZL277 at 10 mg/kg/day, by subcutaneous injection. On the last day of the study, the tumors were collected and frozen for analysis.
as §2

[3] = Metabolites of ZL277 in urine and fecal samples from treated mice; assay type: in vivo; settings: for metabolite detected in Urine: mice after IP injection of ZL277; for relative abundance among metabolites in feces / relative abundance among metabolites in urine: mice treated with ZL277
Description: as §1, §2
Sample preparation protocols: […]
(2) Feces sample preparation: The collected feces samples were weighed on an OHAUS Explorer balance. The internal standard of trans-tamoxifen-13C2,15N (0.5 ng/μL in methanol) was added to the feces samples based on 10 ng/g feces according to the weight of the feces collected. Methanol was added at the ratio of 4 mL/g feces. Then the samples were homogenized with a Power Gen 125 homogenizer (Fisher Scientific) and stored at - 20 °C overnight. After sonicating for 30 min, the samples were centrifuged with a Heraeus Megafuge16R centrifuge at 3000 RPM. The supernatant was dried at room temperature and resuspended with corresponding amount of methanol (200 μL methanol/g feces) for injection on the TSQ Vantage instrument.
(3) Urine sample preparation: Urine samples were thawed at room temperature and vortexed. 200 μL of the sample was transferred to a 1.5 mL Eppendorf microcentrifuge tube followed by adding 200 μL methanol and 10 μL of the 0.5 ng/μL trans-tamoxifen-13C2, 15N in methanol solution. After Vortaxing and centrifuging, the top supernatant was injected on the UPLC-TSQ Vantage mass spectrometer instrument for analysis.

[4] = In vitro sulfation of ZL277 in liver cytosol with PAPS; assay type: in vitro ADME; settings: rat liver cytosol, 30 min
Description: The incubation of ZL277 with liver cytosols followed a similar procedure to the study of sulfation of ZB716 [23]. After termination of incubation with 300 µL MeOH, the final mixture was centrifuged. The supernatant was analyzed on the UHPLC-Q-Exactive instrument.
(§3) The samples from in vitro incubations were run on a Hypersil GOLD C18 column (1.8 µm, 2.1 × 50 mm) with UHPLC ultimate 3000 from Dionex coupled with one Q-Exactive HR mass spectrometer (Thermo Scientific, Waltham, MA, USA). The gradient started at 20% mobile phase B (Acetonitrile with 0.05% formic acid) and 80% mobile phase A (water with 0.05% formic acid), increased to 100% B in 4.5 min at 0.3 mL/min, stayed for 5 min, then came back to 30% B until equilibration. PRM mode or full scan mode was used to identify the interested metabolites.

[5] = In vitro metabolism of ZL277 in liver S9 fraction with NADPH; assay type: in vitro ADME; settings: rat liver S9, NADPH, 1 h
Description: The incubation of ZL277 with liver S9 fractions followed the procedures of incubation with liver microsomes, as described previously. The pre-incubation solution consisted of 30 µL of potassium phosphate buffer (pH 7.4; 10X), 241.5 µL water, 15 µL of NADPH solution A, 3 µL of NADPH solution B, 7.5 µL rat liver S9 fractions. After incubation at 37 °C for 5 min in a 1.5 mL microcentrifuge vial, 3 µL of 10 mM ZL277 was added, mixed, and incubated at 37 °C for another 60 min in the incubator. Then, 300 µL MeOH was added to terminate the reaction. After centrifugation, the supernatant was analyzed on the UHPLC, coupled to a Q-Exactive high-resolution mass spectrometer.
as §3

MDA-MB-231 = test system: MDA-MB-231; parameters: method as in PMID 29456804; settings: cited from earlier work
MCF-7 = test system: MCF-7; parameters: method as in PMID 29456804; settings: cited from earlier work
MCF-7 tumor xenograft = test system: MCF-7 tumor xenograft; parameters: method as in PMID 29456804; settings: mice; cited from earlier work

Compound	metabolite detected in Plasma [1]	metabolite detected in Tumor [2]	metabolite detected in Urine [3]	relative abundance among metabolites in feces [3]	relative abundance among metabolites in urine [3]	other results
O=C(O)/C=C/c1cccc(S(=O)(=O)Nc2ccccc2)c1 [Belinostat acid, belinostat acid]	detected	found	detected	dominantly	dominant components	
O=C(/C=C/c1cccc(S(=O)(=O)Nc2ccccc2)c1)NOCc1ccc(OS(=O)(=O)O)cc1 [ZL277-OH-424-sufate]						sulfate conjugate found after incubation of ZL277 [4]: detected
CONC(=O)/C=C/c1cccc(S(=O)(=O)Nc2ccccc2)c1 [Methylated belinostat, methylated belinostat]	detected	found	detected			
NC(=O)/C=C/c1cccc(S(=O)(=O)Nc2ccccc2)c1 [Belinostat amide, belinostat amide]	detected	found	detected			
CC1(C)OB(c2ccc(CONC(=O)/C=C/c3cccc(S(=O)(=O)Nc4ccccc4)c3)cc2)OC1(C)C [ZL277]						bioavailability compared to belinostat ([1]; mice, 10 mg/kg IP): superior; metabolite found after incubation of ZL277 with liver S9 fraction [5]: not found; antiproliferative activity compared with belinostat (MDA-MB-231): slightly weaker; antiproliferative activity compared with belinostat (MCF-7): slightly weaker; effect on growth of MCF-7 tumor xenograft (MCF-7 tumor xenograft): caused tumor regression
O=C(/C=C/c1cccc(S(=O)(=O)Nc2ccccc2)c1)NO [Belinostat, belinostat]	detected	found	detected	major metabolites	major components	effect on growth of MCF-7 tumor xenograft (MCF-7 tumor xenograft): only inhibited tumor growth
O=C(/C=C/c1cccc(S(=O)(=O)Nc2ccccc2)c1)NOS(=O)(=O)O [Belinostat–sulfate]						sulfate conjugate found after incubation of ZL277 [4]: No peak

Second part, led by results:

metabolite detected in Plasma [1]	metabolite detected in Tumor [2]	metabolite detected in Urine [3]	relative abundance among metabolites in feces [3]	relative abundance among metabolites in urine [3]	Compound	other results
			major metabolites	major components	O=C(/C=C/c1cccc(S(=O)(=O)Nc2ccccc2)c1)NOCc1ccc(B(O)O)cc1 [ZL277-B(OH)2-452]	relative abundance among drug-related forms in plasma ([1]; mice treated with ZL277): predominant form
			major metabolites	major components	O=C(/C=C/c1cccc(S(=O)(=O)Nc2ccccc2)c1)NOCc1ccc(O)cc1 [ZL277-OH-424]	metabolite found after incubation of ZL277 with liver S9 fraction [5]: major oxidative metabolite
